Measured values from PubChem BioAssay (NCI).
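Interpolation was linear, between the two tested concentrations surrounding the appropriate level; five concentrations were tested over 48 hours in 96-well plates. Abbreviation: GI50, concentration required for 50% inhibition of growth. TGI marks complete inhibition of growth.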

Experiments:
Assay in all cases: NCI tumour cell line growth inhibition, 48 h; in the data active means GI50 below about 0.43 µM; inactive means the rest
[1] = test system: CAKI-1 renal
[2] = test system: MDA-MB-435
[3] = test system: SF-539 CNS
[4] = test system: NCI-H522 lung
[5] = test system: K-562 leukemia
[6] = test system: NCI-H23 lung
[7] = test system: PC-3 prostate
[8] = test system: ACHN renal
[9] = test system: SF-295 CNS
[10] = test system: MOLT-4 leukemia
[11] = test system: T-47D breast
[12] = test system: IGROV1 ovarian
[13] = test system: SK-MEL-28 melanoma
[14] = test system: MALME-3M melanoma
[15] = test system: SR leukemia
[16] = test system: EKVX NSCLC
[17] = test system: HL-60(TB) leukemia
[18] = test system: CCRF-CEM leukemia
[19] = test system: BT-549 breast
[20] = test system: SK-OV-3 ovarian
[21] = test system: UACC-62 melanoma
[22] = test system: HOP-92 NSCLC
[23] = test system: NCI/ADR-RES ovarian
[24] = test system: HCC-2998 colon
[25] = test system: TK-10 renal
[26] = test system: MDA-MB-468 breast
[27] = test system: SK-MEL-2 melanoma
[28] = test system: HOP-62 NSCLC
[29] = test system: DU-145 prostate
[30] = test system: MCF7 breast
[31] = test system: HCT-116 colon
[32] = test system: HCT-15 colon
[33] = test system: RPMI-8226 leukemia
[34] = test system: NCI-H226 lung
[35] = test system: SF-268 CNS
[36] = test system: UACC-257 melanoma
[37] = test system: A498 renal
[38] = test system: HT29 colon
[39] = test system: SN12C renal
[40] = test system: OVCAR-5 ovarian
[41] = test system: A549 NSCLC
[42] = test system: 786-0 renal
[43] = test system: SW-620 colon
[44] = test system: NCI-H460 lung
[45] = test system: SK-MEL-5 melanoma
[46] = test system: SNB-75 CNS
[47] = test system: KM12 colon
[48] = test system: LOX IMVI melanoma
[49] = test system: OVCAR-8 ovarian
[50] = test system: MDA-MB-231 breast
[51] = test system: UO-31 renal
[52] = test system: OVCAR-4 ovarian
[53] = test system: HS 578T breast
[54] = test system: COLO 205 colon
[55] = test system: U251 CNS
[56] = test system: OVCAR-3 ovarian
[57] = test system: SNB-19 CNS
[58] = test system: M14 melanoma

COC(=O)c1ccc(-n2cc(CCCN(CCNc3ccnc4cc(Cl)ccc34)C(=O)CCC(=O)O[C@@H]3O[C@@H]4OC5(C)CC[C@H]6[C@H](C)CC[C@@H]([C@H]3C)[C@@]46OO5)nn2)cc1
2130 nM: TGI [32]
3850 nM: TGI [49]
10300 nM: TGI [26]
3630 nM: TGI [2]
2320 nM: TGI [30]
1600 nM: TGI [17]
6000 nM: TGI [48]
> 10800 nM: TGI [1] | TGI [3] | TGI [4] | TGI [6] | TGI [7] | TGI [8] | TGI [9] | TGI [11] | TGI [12] | TGI [13] | TGI [16] | TGI [18] | TGI [19] | TGI [20] | TGI [21] | TGI [23] | TGI [24] | TGI [25] | TGI [27] | TGI [28] | TGI [29] | TGI [31] | TGI [33] | TGI [34] | TGI [35] | TGI [36] | TGI [37] | TGI [38] | TGI [39] | TGI [40] | TGI [41] | TGI [42] | TGI [43] | TGI [44] | TGI [46] | TGI [47] | TGI [50] | TGI [51] | TGI [52] | TGI [53] | TGI [54] | TGI [55] | TGI [56] | TGI [57] | TGI [58]
2410 nM: TGI [45]
7230 nM: TGI [5]
4090 nM: TGI [15]
inactive: GI50 [1] 6830 nM | GI50 [2] 508 nM | GI50 [3] 3150 nM | GI50 [4] 442 nM | GI50 [6] 633 nM | GI50 [8] 1870 nM | GI50 [9] 3240 nM | GI50 [12] 1880 nM | GI50 [13] 1330 nM | GI50 [14] 1250 nM | GI50 [16] 827 nM | GI50 [18] 506 nM | GI50 [19] 541 nM | GI50 [20] > 10800 nM | GI50 [21] 720 nM | GI50 [23] 1760 nM | GI50 [24] 2000 nM | GI50 [25] > 10800 nM | GI50 [26] 619 nM | GI50 [27] 2400 nM | GI50 [28] > 10800 nM | GI50 [29] > 10800 nM | GI50 [30] 444 nM | GI50 [34] 1110 nM | GI50 [35] 2580 nM | GI50 [36] 890 nM | GI50 [37] > 10800 nM | GI50 [38] 519 nM | GI50 [39] 1680 nM | GI50 [40] 796 nM | GI50 [41] 1790 nM | GI50 [42] 3740 nM | GI50 [44] 6150 nM | GI50 [45] 755 nM | GI50 [46] 1010 nM | GI50 [48] 429 nM | GI50 [49] 550 nM | GI50 [50] 6840 nM | GI50 [51] 1030 nM | GI50 [52] 546 nM | GI50 [53] 751 nM | GI50 [55] 805 nM | GI50 [57] > 10800 nM | GI50 [58] 2650 nM
4450 nM: TGI [10]
active: GI50 [5] 247 nM | GI50 [7] 91.7 nM | GI50 [10] 216 nM | GI50 [11] 254 nM | GI50 [15] 314 nM | GI50 [17] 334 nM | GI50 [22] 280 nM | GI50 [31] 155 nM | GI50 [32] 246 nM | GI50 [33] 189 nM | GI50 [43] 375 nM | GI50 [47] 319 nM | GI50 [54] 355 nM | GI50 [56] 397 nM
2820 nM: TGI [22]
2750 nM: TGI [14]
